Assay results as given in PMC10017709, “Structural basis of selective cannabinoid CB2 receptor activation” (Nature Communications, 2023).
Where “and” joins values, the source holds several entries; their conditions need not be identical. Equal entries are not always repeated.

Key:
CB1R-H270^ECL2L [1] = biological target: T1, CB1R-H270^ECL2L (Homo sapiens, UniProt P21554, H270L); experiment: [3H]CP55,940 displacement assay, CB1R H270L mutant; type: binding
CB1R QuadrupleTM1,7 [2] = biological target: T2, CB1R QuadrupleTM1,7 (Homo sapiens, UniProt P21554, I119V/Q116K/S123C/T377K); experiment: [3H]CP55,940 displacement assay, CB1R quadruple mutant; type: binding
T2 construct: The WT CB1R and CB2R genes were subcloned into vector pcDNA3.1; HA signal peptide (N); expressed in transfected cells; host or cells: HEK293T (transient, membrane homogenates)
T2 sequence (P21554 whole entry Q116K/I119V/S123C/T377K): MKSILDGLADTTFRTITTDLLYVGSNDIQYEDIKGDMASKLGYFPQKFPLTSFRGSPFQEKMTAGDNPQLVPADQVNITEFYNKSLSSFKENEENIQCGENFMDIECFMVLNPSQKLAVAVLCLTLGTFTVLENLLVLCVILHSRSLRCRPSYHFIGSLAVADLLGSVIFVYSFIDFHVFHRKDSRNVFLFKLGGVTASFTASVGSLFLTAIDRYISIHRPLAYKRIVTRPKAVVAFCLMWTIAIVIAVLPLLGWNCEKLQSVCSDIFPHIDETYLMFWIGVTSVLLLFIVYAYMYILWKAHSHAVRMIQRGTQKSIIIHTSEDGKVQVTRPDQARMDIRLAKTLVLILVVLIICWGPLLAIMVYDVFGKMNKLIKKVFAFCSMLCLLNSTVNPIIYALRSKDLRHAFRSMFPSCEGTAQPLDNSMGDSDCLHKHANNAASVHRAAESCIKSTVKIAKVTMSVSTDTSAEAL

CB1R-L359^6.51V = CB1R-L359^6.51V (Homo sapiens, UniProt P21554, L359V); experiment: [3H]CP55,940 displacement assay, CB1R L359V mutant; type: binding
Chain of CB1R-L359^6.51V (P21554 whole entry L359V): as the sequence (P21554 whole entry Q116K/I119V/S123C/T377K) above, with K116Q, V119I, C123S, L359V, K377T counted along it

CB2R-I110^3.29L = CB2R-I110^3.29L (Homo sapiens, UniProt P34972, I110L); experiment: [35S]GTPγS assay, CB2R I110L mutant; type: biochemical; conditions: for [35S]GTPγS binding: I1103.29L, individual replicates
Chain of CB2R-I110^3.29L (P34972 whole entry I110L): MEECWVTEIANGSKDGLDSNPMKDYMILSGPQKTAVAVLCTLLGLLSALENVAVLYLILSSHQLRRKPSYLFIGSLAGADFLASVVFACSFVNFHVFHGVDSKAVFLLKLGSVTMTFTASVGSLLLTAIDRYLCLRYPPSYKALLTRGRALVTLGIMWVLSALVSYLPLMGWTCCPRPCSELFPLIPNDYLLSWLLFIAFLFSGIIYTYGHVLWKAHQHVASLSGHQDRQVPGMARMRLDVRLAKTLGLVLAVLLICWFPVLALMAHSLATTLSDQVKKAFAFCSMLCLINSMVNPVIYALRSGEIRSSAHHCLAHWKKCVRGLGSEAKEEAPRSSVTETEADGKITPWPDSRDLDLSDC

CB2R-L185^ECL2H = CB2R-L185^ECL2H (Homo sapiens, UniProt P34972, L185H); experiment: [35S]GTPγS assay, CB2R L185H mutant; type: biochemical
Chain of CB2R-L185^ECL2H (P34972 whole entry L185H): as the sequence (P34972 whole entry I110L) above, with L110I, L185H counted along it

CB2R-Quadruple^TM1,7 = CB2R-Quadruple^TM1,7 (Homo sapiens, UniProt P34972, C40S/K279T/K33Q/V36I); experiment: [35S]GTPγS assay, CB2R quadruple mutant; type: biochemical
Chain of CB2R-Quadruple^TM1,7 (P34972 whole entry K33Q/V36I/C40S/K279T): as the sequence (P34972 whole entry I110L) above, with K33Q, V36I, C40S, L110I, K279T counted along it
Method: In short, transient HEK293T membrane homogenates (10 µg/well) were diluted in assay buffer (50 mM Tris-HCl (pH 7.4), 5 mM MgCl2, 150 mM NaCl, 1 mM EDTA, 0.05% BSA (w/v) and 1 mM DTT, freshly prepared every day) and were pretreated with 10 µg saponin and 1 µM GDP. For endocannabinoid samples, the membranes were additionally pretreated for 30 min with 50 µM PMSF before agonist addition. […] Basal receptor activity was determined in the presence of vehicle only (0.2% DMSO/acetonitrile). […] Filtration was performed, and filter-bound radioactivity was determined as described under [^3H]RO6957022 Competition Association Assays except for using ice-cold 50 mM Tris-HCl (pH 7.4), 5 mM MgCl2 buffer.

CB2R-E181^ECL2D = CB2R-E181^ECL2D (Homo sapiens, UniProt P34972, E181D); experiment: [35S]GTPγS assay, CB2R E181D mutant; type: biochemical
Chain of CB2R-E181^ECL2D (P34972 whole entry E181D): as the sequence (P34972 whole entry I110L) above, with L110I, E181D counted along it

CB2R-F117^3.36A = CB2R-F117^3.36A (Homo sapiens, UniProt P34972, F117A); experiment: [35S]GTPγS assay, CB2R F117A mutant; type: biochemical
Chain of CB2R-F117^3.36A (P34972 whole entry F117A): as the sequence (P34972 whole entry I110L) above, with L110I, F117A counted along it

hCB2R = biological target: T3, hCB2R (Homo sapiens, UniProt P34972); experiment: [3H]RO6957022 competition association assay; type: binding
T3 construct: host or cells: CHO-K1 (CHOK1_hCB2bgal, PathHunter), membranes
T3 sequence (P34972 whole entry): as the sequence (P34972 whole entry I110L) above, with L110I counted along it

hCB1R WT [3] = biological target: T4, hCB1R WT (Homo sapiens, UniProt P21554); experiment: [3H]CP55,940 displacement assay, CB1R WT; type: binding
T4 sequence (P21554 whole entry): as the sequence (P21554 whole entry Q116K/I119V/S123C/T377K) above, with K116Q, V119I, C123S, K377T counted along it

CB2R-I110^3.29A = CB2R-I110^3.29A (Homo sapiens, UniProt P34972, I110A); experiment: [35S]GTPγS assay, CB2R I110A mutant; type: biochemical; conditions: for [35S]GTPγS binding: I1103.29A, individual replicates
Chain of CB2R-I110^3.29A (P34972 whole entry I110A): as the sequence (P34972 whole entry I110L) above, with L110A counted along it

CB1R D266ECL2E [4] = biological target: T5, CB1R D266ECL2E (Homo sapiens, UniProt P21554, D266E); experiment: [35S]GTPγS assay, CB1R D266E mutant; type: biochemical; conditions: CB1R D266E; 10 µM agonist
T5 construct: The WT CB1R and CB2R genes were subcloned into vector pcDNA3.1; HA signal peptide (N); expressed in transfected cells; host or cells: HEK293T (transient, membrane homogenates)
T5 sequence (P21554 whole entry D266E): as the sequence (P21554 whole entry Q116K/I119V/S123C/T377K) above, with K116Q, V119I, C123S, D266E, K377T counted along it

hCB1R WT [5] = biological target: T4, hCB1R WT; experiment: [35S]GTPγS G protein activation assay, CB1R WT; type: biochemical; conditions: CB1R WT; 10 µM agonist
CB2R WT = CB2R WT (Homo sapiens, UniProt P34972); experiment: [35S]GTPγS G protein activation assay, CB2R WT; type: biochemical; conditions: for Emax: CB2R WT
Chain of CB2R WT (P34972 whole entry): as the sequence (P34972 whole entry I110L) above, with L110I counted along it

CB1R-H270^ECL2L [6] = biological target: T1, CB1R-H270^ECL2L; experiment: [35S]GTPγS assay, CB1R H270L mutant; type: biochemical; conditions: CB1R H270L; 10 µM agonist
CB2R-L182^ECL2I = CB2R-L182^ECL2I (Homo sapiens, UniProt P34972, L182I); experiment: [35S]GTPγS assay, CB2R L182I mutant; type: biochemical
Chain of CB2R-L182^ECL2I (P34972 whole entry L182I): as the sequence (P34972 whole entry I110L) above, with L110I, L182I counted along it

CB1R D266ECL2E [7] = biological target: T5, CB1R D266ECL2E; experiment: [3H]CP55,940 displacement assay, CB1R D266E mutant; type: binding
CB1R I267ECL2L [8] = biological target: T6, CB1R I267ECL2L (Homo sapiens, UniProt P21554, I267L); experiment: [35S]GTPγS assay, CB1R I267L mutant; type: biochemical; conditions: CB1R I267L; 10 µM agonist
T6 sequence (P21554 whole entry I267L): as the sequence (P21554 whole entry Q116K/I119V/S123C/T377K) above, with K116Q, V119I, C123S, I267L, K377T counted along it

CB2R-S285^7.39A = CB2R-S285^7.39A (Homo sapiens, UniProt P34972, S285A); experiment: [35S]GTPγS assay, CB2R S285A mutant; type: biochemical
Chain of CB2R-S285^7.39A (P34972 whole entry S285A): as the sequence (P34972 whole entry I110L) above, with L110I, S285A counted along it

CB1R I267ECL2L [9] = biological target: T6, CB1R I267ECL2L; experiment: [3H]CP55,940 displacement assay, CB1R I267L mutant; type: binding
CB2R-H95^2.65A = CB2R-H95^2.65A (Homo sapiens, UniProt P34972, H95A); experiment: [35S]GTPγS assay, CB2R H95A mutant; type: biochemical
Chain of CB2R-H95^2.65A (P34972 whole entry H95A): as the sequence (P34972 whole entry I110L) above, with H95A, L110I counted along it

CB2R-V261^6.51L = CB2R-V261^6.51L (Homo sapiens, UniProt P34972, V261L); experiment: [35S]GTPγS assay, CB2R V261L mutant; type: biochemical; conditions: for [35S]GTPγS binding: V2616.51L, individual replicates
Chain of CB2R-V261^6.51L (P34972 whole entry V261L): as the sequence (P34972 whole entry I110L) above, with L110I, V261L counted along it

CB1R QuadrupleTM1,7 [10] = experiment: [35S]GTPγS assay, CB1R quadruple mutant; type: biochemical, human; conditions: CB1R Quadruple TM1,7; 10 µM agonist

T1 sequence (P21554 whole entry H270L): as the sequence (P21554 whole entry Q116K/I119V/S123C/T377K) above, with K116Q, V119I, C123S, H270L, K377T counted along it

SMILES: CCCCCCC(C)(C)c1cc(OC)c([C@@H]2C=C(CO)[C@@H]3C[C@H]2C3(C)C)c(OC)c1 [HU308]
- Displacement (%) of [3H]CP55,940 (CB1R-H270^ECL2L [1]): 46 ± 3%
- percentage specific [3H]CP55,940 binding (CB1R-H270^ECL2L [1]): 48.81 percentage and 55.24 percentage and 57.51 percentage
- Displacement (%) of [3H]CP55,940 (CB1R QuadrupleTM1,7 [2]): -13 ± 22%
- percentage specific [3H]CP55,940 binding (CB1R QuadrupleTM1,7 [2]): 134.56 percentage and 68.97 percentage and 134.64 percentage
- percentage specific [3H]CP55,940 binding (CB1R-L359^6.51V): 49.24 percentage and 48.12 percentage and 78.61 percentage
- Emax (CB2R-I110^3.29L): 122 ± 12%
- [35S]GTPγS binding (CB2R-I110^3.29L; log [ligand] (M) -5): 144.00 percentage of WT and 101.90 percentage of WT and 119.46 percentage of WT
- [35S]GTPγS binding (CB2R-I110^3.29L; log [ligand] (M) -6): 62.70 percentage of WT and 56.80 percentage of WT and 71.03 percentage of WT
- [35S]GTPγS binding (CB2R-I110^3.29L; log [ligand] (M) -7): 34.90 percentage of WT and 47.80 percentage of WT and 66.79 percentage of WT
- [35S]GTPγS binding (CB2R-I110^3.29L; log [ligand] (M) -8): 0.30 percentage of WT and -7.00 percentage of WT and 4.82 percentage of WT
- [35S]GTPγS binding (CB2R-I110^3.29L; log [ligand] (M) -9): -41.10 percentage of WT and -11.80 percentage of WT and -14.01 percentage of WT
- [35S]GTPγS binding (CB2R-I110^3.29L; log [ligand] (M) -10): -13.40 percentage of WT and -17.60 percentage of WT and 8.27 percentage of WT
- Emax (CB2R-L185^ECL2H): 146 ± 8%
- Emax (CB2R-Quadruple^TM1,7): 1 ± 9%
- activation of CB2R-Quadruple^TM1,7 (CB2R-Quadruple^TM1,7): completely lost their ability to activate
- Emax (CB2R-E181^ECL2D): 32 ± 3%
- Emax (CB2R-F117^3.36A): 5 ± 11%
- [35S]GTPγS binding (CB2R-F117^3.36A; F1173.36A, log [ligand] (M) -5, individual replicates): -12.18 percentage of WT and 25.21 percentage of WT and 1.54 percentage of WT
- ET (engagement time) (hCB2R): 143 s and 143 ± 47.9 s
- Displacement (%) of [3H]CP55,940 (hCB1R WT [3]): 6 ± 7%
- percentage specific [3H]CP55,940 binding (hCB1R WT [3]): 78.66 percentage and 99.84 percentage and 102.02 percentage
- Emax (CB2R-I110^3.29A): 27 ± 10%
- [35S]GTPγS binding (CB2R-I110^3.29A; log [ligand] (M) -5): 7.61 percentage of WT and 53.50 percentage of WT and 22.50 percentage of WT and 24.96 percentage of WT
- [35S]GTPγS binding (CB2R-I110^3.29A; log [ligand] (M) -6): -2.63 percentage of WT and 15.83 percentage of WT and -2.10 percentage of WT and 11.35 percentage of WT
- [35S]GTPγS binding (CB2R-I110^3.29A; log [ligand] (M) -7): -21.19 percentage of WT and 26.20 percentage of WT and -0.60 percentage of WT and -1.65 percentage of WT
- [35S]GTPγS binding (CB2R-I110^3.29A; log [ligand] (M) -8): -20.10 percentage of WT and 21.60 percentage of WT and -13.80 percentage of WT and -17.12 percentage of WT
- [35S]GTPγS binding (CB2R-I110^3.29A; log [ligand] (M) -9): -21.53 percentage of WT and -16.40 percentage of WT and -20.30 percentage of WT and -26.64 percentage of WT
- [35S]GTPγS binding (CB2R-I110^3.29A; log [ligand] (M) -10): -16.86 percentage of WT and 2.60 percentage of WT and -15.20 percentage of WT and -22.40 percentage of WT
- Agonist-mediated activation (CB1R D266ECL2E [4]): 0.8 ± 0.1 fold over its basal
- Agonist-mediated activation (hCB1R WT [5]): 0.8 ± 0.0 fold over its basal
- Emax (CB2R WT; maximum effect at 10 µM compared to WT (Suppl. Table 6)): 105 ± 3%
- Emax (CB2R WT; maximum effect compared to CP55,940): 91 ± 8%
- [35S]GTPγS binding, percentage of WT (CB2R WT; WT, log [ligand] (M) -10, individual replicates): 12.69 percentage of WT and 0.12 percentage of WT and -18.99 percentage of WT and 12.94 percentage of WT and 1.90 percentage of WT and -10.30 percentage of WT and -18.00 percentage of WT and 0.09 percentage of WT and 9.81 percentage of WT and 3.21 percentage of WT
- [35S]GTPγS binding, percentage of CP55,940 (CB2R WT; log [agonist] (M) -5, individual replicates): 84.84% and 81.20% and 107.18%
- [35S]GTPγS binding, percentage of CP55,940 (CB2R WT; log [agonist] (M) -6, individual replicates): 42.88% and 70.07% and 64.55%
- [35S]GTPγS binding, percentage of CP55,940 (CB2R WT; log [agonist] (M) -7, individual replicates): 59.80% and 30.89% and 31.02%
- [35S]GTPγS binding, percentage of CP55,940 (CB2R WT; log [agonist] (M) -8, individual replicates): 26.43% and 5.08% and 10.60%
- [35S]GTPγS binding, percentage of CP55,940 (CB2R WT; log [agonist] (M) -9, individual replicates): -10.38% and -5.63% and -15.53%
- [35S]GTPγS binding, percentage of CP55,940 (CB2R WT; log [agonist] (M) -10, individual replicates): 1.23% and -8.38% and 14.06%
- Agonist-mediated activation (CB1R-H270^ECL2L [6]): 1.2 ± 0.1 fold over its basal
- Emax (CB2R-L182^ECL2I): 10 ± 7%
- Displacement (%) of [3H]CP55,940 (CB1R D266ECL2E [7]): 34 ± 5%
- percentage specific [3H]CP55,940 binding (CB1R D266ECL2E [7]): 73.61 percentage and 56.25 percentage and 67.45 percentage
- Agonist-mediated activation (CB1R I267ECL2L [8]): 0.8 ± 0.0 fold over its basal
- Emax (CB2R-S285^7.39A): 65 ± 18%
- loss in potency compared to WT (CB2R-S285^7.39A; S285A mutant vs WT, [35S]GTPγS): 15 fold
- Emax (%) (CB2R-S285^7.39A; S285A mutant, at 10 µM compared to WT): unaffected
- Displacement (%) of [3H]CP55,940 (CB1R I267ECL2L [9]): -7 ± 19%
- percentage specific [3H]CP55,940 binding (CB1R I267ECL2L [9]): 143.22 percentage and 82.61 percentage and 94.20 percentage
- Emax (CB2R-H95^2.65A): 67 ± 16%
- Emax (CB2R-V261^6.51L): 26 ± 7%
- drop in potency compared to WT (CB2R-V261^6.51L; V261L mutant vs WT, [35S]GTPγS): more than 120 fold
- [35S]GTPγS binding (CB2R-V261^6.51L; log [ligand] (M) -5): 38.70 percentage of WT and 22.83 percentage of WT and 16.52 percentage of WT
- [35S]GTPγS binding (CB2R-V261^6.51L; log [ligand] (M) -6): 9.87 percentage of WT and 8.25 percentage of WT and -4.25 percentage of WT
- [35S]GTPγS binding (CB2R-V261^6.51L; log [ligand] (M) -7): 4.21 percentage of WT and 12.98 percentage of WT and 17.88 percentage of WT
- [35S]GTPγS binding (CB2R-V261^6.51L; log [ligand] (M) -8): 19.13 percentage of WT and 1.74 percentage of WT and -11.50 percentage of WT
- [35S]GTPγS binding (CB2R-V261^6.51L; log [ligand] (M) -9): 9.08 percentage of WT and 5.95 percentage of WT and 6.43 percentage of WT
- [35S]GTPγS binding (CB2R-V261^6.51L; log [ligand] (M) -10): 7.31 percentage of WT and 13.50 percentage of WT and 10.09 percentage of WT
- Agonist-mediated activation (CB1R QuadrupleTM1,7 [10]): 0.9 ± 0.0 fold over its basal
